Experimental data reported in US20030129629A1, “Methods and compositions for the identification, assessment, prevention, and therapy of human cancers” (Millennium Pharmaceuticals, Inc., priority 2000, published 2003).
Like-named read-outs stand apart in the source and are kept apart here.

Experiments:
[1] = system: 60 cancer cell lines (NCI 60 cancer cell line series); test: NCI-DTP in vitro cancer screen, sulforhodamine B (SRB) growth inhibition, 48 hour exposure; type: cell-based, human
Summary of the method: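 Potency is given as mean −log{GI50} from dose–response curves, manually binned into Low, Medium or High sensitivity. Sixty NCI-DTP tumour lines were treated 48 h with a duplicate, five-dose, ten-fold dilution series, and growth read by SRB staining of cell mass.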

[2] = system: 60 cancer cell lines (NCI 60 cancer cell line series); conditions: cited from earlier work

Carboplatin
classification of cell line as Low(1), Medium(2), High(3) sensitivity to compound ([1]; Breast BT-549 CL5013): 2
classification of cell line as Low(1), Medium(2), High(3) sensitivity to compound ([1]; Breast HS-578T CL5006): 2
classification of cell line as Low(1), Medium(2), High(3) sensitivity to compound ([1]; Breast MCF7(I) CL5001): 2
classification of cell line as Low(1), Medium(2), High(3) sensitivity to compound ([1]; Breast MCF7/ADRr CL5002): 2
classification of cell line as Low(1), Medium(2), High(3) sensitivity to compound ([1]; Breast MDA-MB-231 CL5005): 1
classification of cell line as Low(1), Medium(2), High(3) sensitivity to compound ([1]; Breast MDA-MB-435 CL5011): 1
classification of cell line as Low(1), Medium(2), High(3) sensitivity to compound ([1]; Breast MDA-N CL5012): 2
classification of cell line as Low(1), Medium(2), High(3) sensitivity to compound ([1]; Breast T-47D CL5014): 1
classification of cell line as Low(1), Medium(2), High(3) sensitivity to compound ([1]; CNS SF-268 CL12014): 3
classification of cell line as Low(1), Medium(2), High(3) sensitivity to compound ([1]; CNS SF-295 CL12015): 3
classification of cell line as Low(1), Medium(2), High(3) sensitivity to compound ([1]; CNS SF-539 CL12016): 2
classification of cell line as Low(1), Medium(2), High(3) sensitivity to compound ([1]; CNS SNB-19 CL12002): 2
classification of cell line as Low(1), Medium(2), High(3) sensitivity to compound ([1]; CNS SNB-75(I) CL12005): 2
classification of cell line as Low(1), Medium(2), High(3) sensitivity to compound ([1]; CNS U251(I) CL12009): 2
classification of cell line as Low(1), Medium(2), High(3) sensitivity to compound ([1]; Colon COLO-250 CL4010): 1
classification of cell line as Low(1), Medium(2), High(3) sensitivity to compound ([1]; Colon HCC-2998 CL4002): 1
classification of cell line as Low(1), Medium(2), High(3) sensitivity to compound ([1]; Colon HCT-15 CL4015): 1
classification of cell line as Low(1), Medium(2), High(3) sensitivity to compound ([1]; Colon HCT-116 CL4003): 2
classification of cell line as Low(1), Medium(2), High(3) sensitivity to compound ([1]; Colon HT29(I) CL4001): 1
classification of cell line as Low(1), Medium(2), High(3) sensitivity to compound ([1]; Colon KM12 CL4017): 1
classification of cell line as Low(1), Medium(2), High(3) sensitivity to compound ([1]; Colon SW-620 CL4009): 2
classification of cell line as Low(1), Medium(2), High(3) sensitivity to compound ([1]; Leukemia CCRF-CEM(I) CL7003): 2
classification of cell line as Low(1), Medium(2), High(3) sensitivity to compound ([1]; Leukemia HL-60(I) CL7008): 3
classification of cell line as Low(1), Medium(2), High(3) sensitivity to compound ([1]; Leukemia K562(I) CL7005): 2
classification of cell line as Low(1), Medium(2), High(3) sensitivity to compound ([1]; Leukemia MOLT-4 CL7006): 2
classification of cell line as Low(1), Medium(2), High(3) sensitivity to compound ([1]; Leukemia RPMI-8226(I) CL7010): 2
classification of cell line as Low(1), Medium(2), High(3) sensitivity to compound ([1]; Leukemia SR CL7019): 2
classification of cell line as Low(1), Medium(2), High(3) sensitivity to compound ([1]; Melanoma LOX IMVI CL10001): 2
classification of cell line as Low(1), Medium(2), High(3) sensitivity to compound ([1]; Melanoma M14 CL10014): 2
classification of cell line as Low(1), Medium(2), High(3) sensitivity to compound ([1]; Melanoma MALME-3M CL10002): 2
classification of cell line as Low(1), Medium(2), High(3) sensitivity to compound ([1]; Melanoma SK-MEL-2 CL10005): 2
classification of cell line as Low(1), Medium(2), High(3) sensitivity to compound ([1]; Melanoma SK-MEL-28 CL10008): 2
sensitivity classification Low(1)/Medium(2)/High(3) ([1]; NSCLC NCI-H23(I) CL1001): 3
sensitivity classification Low(1)/Medium(2)/High(3) ([1]; NSCLC NCI-H332M CL1017): 1
sensitivity classification Low(1)/Medium(2)/High(3) ([1]; NSCLC NCI-H460 CL1021): 3
sensitivity classification Low(1)/Medium(2)/High(3) ([1]; NSCLC NCI-H522 CL1003): 3
sensitivity classification Low(1)/Medium(2)/High(3) ([1]; Ovarian IGROV1 CL6010): 3
sensitivity classification Low(1)/Medium(2)/High(3) ([1]; Ovarian OVCAR-3 CL6001): 2
sensitivity classification Low(1)/Medium(2)/High(3) ([1]; Ovarian OVCAR-4 CL6002): 2
sensitivity classification Low(1)/Medium(2)/High(3) ([1]; Ovarian OVCAR-5 CL6003): 1
sensitivity classification Low(1)/Medium(2)/High(3) ([1]; Ovarian OVCAR-8 CL6005): 2
sensitivity classification Low(1)/Medium(2)/High(3) ([1]; Ovarian SK-OV-3 CL6011): 2
sensitivity classification Low(1)/Medium(2)/High(3) ([1]; Prostate DU-145 CL11003): 2
sensitivity classification Low(1)/Medium(2)/High(3) ([1]; Prostate PC-3(I) CL11001): 1
sensitivity classification Low(1)/Medium(2)/High(3) ([1]; Renal 786-0 CL9018): 2
sensitivity classification Low(1)/Medium(2)/High(3) ([1]; Renal A498 CL9013): 1
sensitivity classification Low(1)/Medium(2)/High(3) ([1]; Renal ACHN CL9023): 2
sensitivity classification Low(1)/Medium(2)/High(3) ([1]; Renal CAKI-1 CL9015): 2
sensitivity classification Low(1)/Medium(2)/High(3) ([1]; Renal RXF-393 CL9016): 2
sensitivity classification Low(1)/Medium(2)/High(3) ([1]; Renal SN12C CL9008): 2
sensitivity classification Low(1)/Medium(2)/High(3) ([1]; Renal TK10 CL9024): 1
sensitivity classification Low(1)/Medium(2)/High(3) ([1]; Renal UO-31 CL9004): 2
−Log (GI50) ([2]; Breast BT-549 CL5013): 3.7
−Log (GI50) ([2]; Breast HS-578T CL5006): 3.8
−Log (GI50) ([2]; Breast MCF7(I) CL5001): 3.9
−Log (GI50) ([2]; Breast MCF7/ADRr CL5002): 3.8
−Log (GI50) ([2]; Breast MDA-MB-231 CL5005): 3.6
−Log (GI50) ([2]; Breast MDA-MB-435 CL5011): 3.7
−Log (GI50) ([2]; Breast MDA-N CL5012): 3.8
−Log (GI50) ([2]; Breast T-47D CL5014): 3.6
−Log (GI50) ([2]; CNS SF-268 CL12014): 4.3
−Log (GI50) ([2]; CNS SF-295 CL12015): 4.2
−Log (GI50) ([2]; CNS SF-539 CL12016): 4.1
−Log (GI50) ([2]; CNS SNB-19 CL12002): 3.8
−Log (GI50) ([2]; CNS SNB-75(I) CL12005): 4.0
−Log (GI50) ([2]; CNS U251(I) CL12009): 4.2
−Log (GI50) ([2]; Colon COLO-250 CL4010): 3.6
−Log (GI50) ([2]; Colon HCC-2998 CL4002): 3.7
−Log (GI50) ([2]; Colon HCT-15 CL4015): 3.6
−Log (GI50) ([2]; Colon HCT-116 CL4003): 3.7
−Log (GI50) ([2]; Colon HT29(I) CL4001): 3.7
−Log (GI50) ([2]; Colon KM12 CL4017): 3.7
−Log (GI50) ([2]; Colon SW-620 CL4009): 3.8
−Log (GI50) ([2]; Leukemia CCRF-CEM(I) CL7003): 4.2
−Log (GI50) ([2]; Leukemia HL-60(I) CL7008): 4.5
−Log (GI50) ([2]; Leukemia K562(I) CL7005): 3.8
−Log (GI50) ([2]; Leukemia MOLT-4 CL7006): 4.1
−Log (GI50) ([2]; Leukemia RPMI-8226(I) CL7010): 3.8
−Log (GI50) ([2]; Leukemia SR CL7019): 4.1
−Log (GI50) ([2]; Melanoma LOX IMVI CL10001): 4.2
−Log (GI50) ([2]; Melanoma M14 CL10014): 4.0
−Log (GI50) ([2]; Melanoma MALME-3M CL10002): 4.1
−Log (GI50) ([2]; Melanoma SK-MEL-2 CL10005): 3.8
−Log (GI50) ([2]; Melanoma SK-MEL-5 CL10007): 4.0
−Log (GI50) ([2]; Melanoma SK-MEL-28 CL10008): 3.8
−Log (GI50) ([2]; Melanoma UACC-62 CL10020): 4.4
−Log (GI50) ([2]; Melanoma UACC-257 CL10021): 3.9
−Log (GI50) ([2]; NSCLC A549/ATCC CL1004): 4.0
−Log (GI50) ([2]; NSCLC EKVX CL1008): 3.7
−Log (GI50) ([2]; NSCLC HOP-62 CL1026): 3.9
−Log (GI50) ([2]; NSCLC HOP-92 CL1029): 4.0
−Log (GI50) ([2]; NSCLC NCI-H23(I) CL1001): 4.3
−Log (GI50) ([2]; NSCLC NCI-H226 CL1013): 3.9
−Log (GI50) ([2]; NSCLC NCI-H332M CL1017): 3.7
−Log (GI50) ([2]; NSCLC NCI-H460 CL1021): 4.5
−Log (GI50) ([2]; NSCLC NCI-H522 CL1003): 4.3
−Log (GI50) ([2]; Ovarian IGROV1 CL6010): 4.3
−Log (GI50) ([2]; Ovarian OVCAR-3 CL6001): 4.2
−Log (GI50) ([2]; Ovarian OVCAR-4 CL6002): 4.1
−Log (GI50) ([2]; Ovarian OVCAR-5 CL6003): 3.6
−Log (GI50) ([2]; Ovarian OVCAR-8 CL6005): 3.7
−Log (GI50) ([2]; Ovarian SK-OV-3 CL6011): 3.7
−Log (GI50) ([2]; Prostate DU-145 CL11003): 3.9
−Log (GI50) ([2]; Prostate PC-3(I) CL11001): 3.6
−Log (GI50) ([2]; Renal 786-0 CL9018): 4.0
−Log (GI50) ([2]; Renal A498 CL9013): 3.7
−Log (GI50) ([2]; Renal ACHN CL9023): 4.1
−Log (GI50) ([2]; Renal CAKI-1 CL9015): 4.1
−Log (GI50) ([2]; Renal RXF-393 CL9016): 4.2
−Log (GI50) ([2]; Renal SN12C CL9008): 3.8
−Log (GI50) ([2]; Renal TK10 CL9024): 3.7
−Log (GI50) ([2]; Renal UO-31 CL9004): 3.8
